Measurements published in the supplement of paper PMC11061612.

Tests used:
Assay in all cases: combination Emax (second highest fraction inhibited in the dose matrix, 72 h); higher = more inhibition; extreme values may be limits of the assay
EB2 (Burkitt's Lymphoma) = tested on: EB2 (Burkitt's Lymphoma)
How it was run: (§1)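 Cell lines in DMEM/F12 or RPMI with 10% FBS were plated in 1536-well plates, held 24 hours at 37°C, 5% CO2, then given two-drug dose matrices for 72 hours (DMSO typically 0.2%). Viability was read by CellTiter-Glo 2.0 luminescence and scaled as inhibition from 0 (vehicle wells) to 1 (blank wells). Combination Emax is the second-highest inhibition in the matrix; Bliss excess is observed combination effect minus expected EA + EB − EA·EB, EA and EB being single-agent effects.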

EW-7 (Ewing's Sarcoma) = tested on: EW-7 (Ewing's Sarcoma)
How it was run: as §1

PEO1 (Ovarian Carcinoma) = tested on: PEO1 (Ovarian Carcinoma)
How it was run: as §1

[1] = tested on: MHH-ES-1 (Ewing's Sarcoma)
How it was run: as §1

[2] = tested on: SW620 (Colorectal Carcinoma)
How it was run: as §1

[3] = tested on: LU-165 (Small Cell Lung Carcinoma)
How it was run: as §1

[4] = tested on: HCC1395 (Breast Carcinoma)
How it was run: as §1

[5] = tested on: MDA-MB-436 (Breast Carcinoma)
How it was run: as §1

KP-N-YN (Neuroblastoma) = tested on: KP-N-YN (Neuroblastoma)
How it was run: as §1

| SMILES | combination Emax (EB2 (Burkitt's Lymphoma)) | combination Emax (EW-7 (Ewing's Sarcoma)) | combination Emax (PEO1 (Ovarian Carcinoma)) | combination Emax [1] | combination Emax [2] | combination Emax [3] | combination Emax [4] | combination Emax [5] | combination Emax (KP-N-YN (Neuroblastoma)) |
| --- | --- | --- | --- | --- | --- | --- | --- | --- | --- |
| O=C(c1cc(Cc2n[nH]c(=O)c3ccccc23)ccc1F)N1CCN(C(=O)C2CC2)CC1 [Olaparib] + CN(CC[C@H](CSC1=CC=CC=C1)NC2=C(C=C(C=C2)S(=O)(=O)NC(=O)C3=CC=C(C=C3)N4CCC(CC4)[C@H](C5=CC=CC=C5C6=CC=C(C=C6)Cl)O)S(=O)(=O)C(F)(F)F)CCO [AZD4320] (first compound max 10 µM, 7x7, partner max 1 µM) | 0.13 | 0.944 | 0.242 | 0.952 | 0.329 | 0.473 | 0.407 | 0.308 | 0.968 |
| C[C@@H]1COCCN1c1cc(C2([S@](C)(=N)=O)CC2)nc(-c2ccnc3[nH]ccc23)n1 [AZD6738] + Nc1ccn([C@@H]2O[C@H](CO)[C@@H](O)C2(F)F)c(=O)n1 [Gemcitabine] (first compound max 10 µM, 7x7, partner max 0.3 µM) | 0.942 | 1 | 0.696 | 0.995 | 0.895 | 0.551 | 0.693 | 0.621 | – |
| Cc1c2c(nn1C)CSCc1cc(n(C)n1)CSc1cc(c3ccccc3c1)OCCCc1c(C(=O)O)n(C)c3c-2c(Cl)ccc13 [AZD5991] + CS(=O)(=O)CCNCc1ccc(-c2ccc3ncnc(Nc4ccc(OCc5cccc(F)c5)c(Cl)c4)c3c2)o1 [Lapatinib] (first compound max 1 µM, 7x7, partner max 10 µM) | 0.283 | 0.666 | 0.442 | 0.58 | 0.207 | 0.225 | 0.94 | 0.274 | 0.374 |
| O=C(c1cc(Cc2n[nH]c(=O)c3ccccc23)ccc1F)N1CCN(C(=O)C2CC2)CC1 [Olaparib] + Cc1c2c(nn1C)CSCc1cc(n(C)n1)CSc1cc(c3ccccc3c1)OCCCc1c(C(=O)O)n(C)c3c-2c(Cl)ccc13 [AZD5991] (first compound max 10 µM, 7x7, partner max 1 µM) | 0.192 | 0.787 | 0.112 | 0.879 | 0.173 | 0.141 | 0.616 | 0.234 | 0.335 |
| C[C@@H]1COCCN1c1cc(C2([S@](C)(=N)=O)CC2)nc(-c2ccnc3[nH]ccc23)n1 [AZD6738] + C1CC(C1)(C(=O)[O-])C(=O)[O-].N.N.[Pt+2] [Carboplatin] (first compound max 10 µM, 7x7, partner max 10 µM) | 0.76 | 0.936 | 0.675 | 0.51 | 0.478 | 0.41 | 0.586 | 0.266 | – |
| Cc1c2c(nn1C)CSCc1cc(n(C)n1)CSc1cc(c3ccccc3c1)OCCCc1c(C(=O)O)n(C)c3c-2c(Cl)ccc13 [AZD5991] + CC(=O)O[C@H]1C(=O)[C@@]2(C)[C@H]([C@H](OC(=O)c3ccccc3)[C@]3(O)C[C@H](OC(=O)[C@H](O)[C@@H](NC(=O)c4ccccc4)c4ccccc4)C(C)=C1C3(C)C)[C@]1(OC(C)=O)CO[C@@H]1C[C@@H]2O [Paclitaxel] (first compound max 1 µM, 7x7, partner max 3 µM) | 0.666 | 0.984 | 0.762 | 0.965 | 0.788 | 0.36 | 0.933 | 0.391 | 0.608 |
| CS(=O)(=O)CCNCc1ccc(-c2ccc3ncnc(Nc4ccc(OCc5cccc(F)c5)c(Cl)c4)c3c2)o1 [Lapatinib] + Cn1cnc2c(F)c(Nc3ccc(Br)cc3Cl)c(C(=O)NOCCO)cc21 [Selumetinib] (first compound max 10 µM, 7x7, partner max 10 µM) | 0.324 | 0.731 | 0.52 | 0.401 | 0.656 | 0.24 | 0.846 | 0.352 | 0.409 |
| C=CCn1c(=O)c2cnc(Nc3ccc(N4CCN(C)CC4)cc3)nc2n1-c1cccc(C(C)(C)O)n1 [AZD1775] + Nc1ccn([C@@H]2O[C@H](CO)[C@@H](O)C2(F)F)c(=O)n1 [Gemcitabine] (first compound max 1 µM, partner max 0.3 µM) | 0.942 | 1 | 0.65 | 0.983 | 0.9 | 0.508 | 0.515 | 0.608 | – |
| C=CCn1c(=O)c2cnc(Nc3ccc(N4CCN(C)CC4)cc3)nc2n1-c1cccc(C(C)(C)O)n1 [AZD1775] + CCc1c2c(nc3ccc(O)cc13)-c1cc3c(c(=O)n1C2)COC(=O)[C@]3(O)CC [SN-38] (first compound max 1 µM, partner max 0.3 µM) | 0.941 | 0.966 | 0.768 | 0.985 | 0.949 | 0.588 | 0.733 | 0.591 | – |
| CN(CCO)CC[C@H](CSc1ccccc1)Nc1ccc(S(=O)(=O)NC(=O)c2ccc(N3CCC([C@@H](O)c4ccccc4-c4ccc(Cl)cc4)CC3)cc2)cc1S(=O)(=O)C(F)(F)F [AZD4320] + CS(=O)(=O)CCNCc1ccc(-c2ccc3ncnc(Nc4ccc(OCc5cccc(F)c5)c(Cl)c4)c3c2)o1 [Lapatinib] (first compound max 1 µM, 7x7, partner max 10 µM) | 0.293 | 0.979 | 0.829 | 0.973 | 0.741 | 0.943 | 0.96 | 0.256 | – |
| Cc1c2c(nn1C)CSCc1cc(n(C)n1)CSc1cc(c3ccccc3c1)OCCCc1c(C(=O)O)n(C)c3c-2c(Cl)ccc13 [AZD5991] + Nc1ccn([C@@H]2O[C@H](CO)[C@@H](O)C2(F)F)c(=O)n1 [Gemcitabine] (first compound max 1 µM, 7x7, partner max 0.3 µM) | 0.923 | 1 | 0.544 | 0.935 | 0.657 | 0.423 | – | 0.56 | – |
| C[C@@H](Oc1cc(-c2cnn(C3CCNCC3)c2)cnc1N)c1c(Cl)ccc(F)c1Cl [Crizotinib] + Cn1cnc2c(F)c(Nc3ccc(Br)cc3Cl)c(C(=O)NOCCO)cc21 [Selumetinib] (first compound max 10 µM, 7x7, partner max 10 µM) | 0.566 | 0.929 | 0.297 | 0.889 | 0.861 | 0.279 | 0.491 | 0.292 | 0.607 |
| CC1(C)CCC(CN2CCN(c3ccc(C(=O)NS(=O)(=O)c4ccc(NCC5CCOCC5)c([N+](=O)[O-])c4)c(Oc4cnc5[nH]ccc5c4)c3)CC2)=C(c2ccc(Cl)cc2)C1 [Venetoclax] + CS(=O)(=O)CCNCc1ccc(-c2ccc3ncnc(Nc4ccc(OCc5cccc(F)c5)c(Cl)c4)c3c2)o1 [Lapatinib] (first compound max 1 µM, 7x7, partner max 10 µM) | 0.348 | 0.656 | 0.287 | 0.371 | 0.184 | 0.305 | 0.826 | 0.227 | 0.57 |
| Cc1nc(-c2cn3c(n2)-c2ccc(-c4cnn(C(C)(C)C(N)=O)c4)cc2OCC3)n(C(C)C)n1 [Taselisib] + O=C(Nc1ccc2[nH]nc(-c3ccncc3)c2c1)[C@@H]1CCN(CC(=O)N2CCN(c3ccc(-c4ncccn4)cc3)CC2)C1 [SCH772984] (first compound max 10 µM, 7x7, partner max 5 µM) | 0.563 | 0.999 | 0.818 | 0.609 | 0.764 | 0.475 | 0.606 | 0.469 | 0.553 |
| O=C(c1cc(Cc2n[nH]c(=O)c3ccccc23)ccc1F)N1CCN(C(=O)C2CC2)CC1 [Olaparib] + CC1(C)CCC(CN2CCN(c3ccc(C(=O)NS(=O)(=O)c4ccc(NCC5CCOCC5)c([N+](=O)[O-])c4)c(Oc4cnc5[nH]ccc5c4)c3)CC2)=C(c2ccc(Cl)cc2)C1 [Venetoclax] (first compound max 10 µM, 7x7, partner max 1 µM) | 0.242 | 0.786 | 0.146 | 0.86 | 0.182 | 0.207 | 0.242 | 0.277 | 0.728 |
| C[C@@H](Nc1cc(F)cc(F)c1)c1cc(C(=O)N(C)C)cc2c(=O)cc(N3CCOCC3)oc12 [AZD8186] + C1CN(CCC1(C(=O)N[C@@H](CCO)C2=CC=C(C=C2)Cl)N)C3=NC=NC4=C3C=CN4 [AZD5363] (first compound max 10 µM, 7x7, partner max 10 µM) | 0.552 | 0.678 | 0.351 | 0.358 | 0.24 | 0.375 | 0.414 | 0.449 | 0.257 |
| O=C(c1cc(Cc2n[nH]c(=O)c3ccccc23)ccc1F)N1CCN(C(=O)C2CC2)CC1 [Olaparib] + COc1nnc2ccc(N3CCC(c4ccc(OCCN5CCN(C)C(=O)[C@H]5C)cc4)CC3)nn12 [AZD5153] (first compound max 10 µM, 7x7, partner max 1 µM) | 0.484 | 0.746 | 0.361 | 0.905 | 0.447 | 0.373 | 0.426 | 0.316 | 0.521 |
| C[C@@H](Oc1cc(-c2cnn(C3CCNCC3)c2)cnc1N)c1c(Cl)ccc(F)c1Cl [Crizotinib] + CC1=C(C(=CC=C1)Cl)NC(=O)C2=CN=C(S2)NC3=CC(=NC(=N3)C)N4CCN(CC4)CCO [Dasatinib] (first compound max 10 µM, 7x7, partner max 2 µM) | 0.591 | 0.945 | 0.532 | 0.77 | 0.867 | 0.469 | 0.88 | 0.3 | 0.71 |
| C[C@@H](Nc1cc(F)cc(F)c1)c1cc(C(=O)N(C)C)cc2c(=O)cc(N3CCOCC3)oc12 [AZD8186] + CC(=O)c1c(C)c2cnc(Nc3ccc(N4CCNCC4)cn3)nc2n(C2CCCC2)c1=O [Palbociclib] (first compound max 10 µM, 7x7, partner max 10 µM) | 0.582 | 0.509 | 0.454 | 0.602 | 0.481 | 0.31 | 0.382 | 0.472 | 0.433 |
